Reference: patent US20240067693A1, “POLYPEPTIDES AND USES THEREOF” (MEDIMMUNE LIMITED, priority 2020, published 2024)
Numbered stars: 1 amine (or outer) side, 2 acyl side, 3 side chain; on linkers, the order of the positions; unused ones are H or OH. Bridge positions count the residues as written; N and C are the ends. Square brackets hold non-standard residues; d marks the D form. Side chains are listed from the residue outwards. Peptide text beside a SMILES is read from it. * marks the point of attachment. C18 diacid = O=C(O)CCCCCCCCCCCCCCCCC(=O)*; γGlu = O=C(O)[C@H](CCC(=O)[*:2])N[*:1]; Aib = CC(C)(N)C(=O)O

How the values were obtained:
[1] = biological target: T1, human amylin receptor (calcitonin receptor co-expressed with receptor activity modifying protein, RAMP3) (hAMYR3) (Homo sapiens, UniProt O60896+P30988); assay: cAMP production in 1321N1 cells with stable recombinant expression of human amylin receptor (hAMYR3); format: cell-based; conditions: for Ratio (selectivity hAMYR vs hCTR, ratio of EC50 values at the two receptors): EC50 hCTR / EC50 hAMYR3; for EC50: cAMP, 1321N1 cells, assay buffer with 0.1% BSA, read-out: EC50 (pM) hAMYR3
T1 construct: expressed in transfected cells
T1 sequence (P30988 25-474): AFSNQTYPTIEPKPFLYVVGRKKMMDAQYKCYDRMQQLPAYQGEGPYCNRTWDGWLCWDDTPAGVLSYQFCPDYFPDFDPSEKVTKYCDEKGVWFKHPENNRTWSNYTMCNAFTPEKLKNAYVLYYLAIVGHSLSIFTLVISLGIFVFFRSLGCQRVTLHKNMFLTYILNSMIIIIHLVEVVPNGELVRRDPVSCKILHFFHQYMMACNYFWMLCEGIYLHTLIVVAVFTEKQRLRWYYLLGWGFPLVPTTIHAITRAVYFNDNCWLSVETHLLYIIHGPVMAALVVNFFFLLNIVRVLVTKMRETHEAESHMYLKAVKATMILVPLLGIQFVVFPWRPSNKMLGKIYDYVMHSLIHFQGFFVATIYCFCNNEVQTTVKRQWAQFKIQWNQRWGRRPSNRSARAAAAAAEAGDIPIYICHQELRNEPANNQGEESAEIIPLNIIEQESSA
T1 sequence (O60896 24-148 partner): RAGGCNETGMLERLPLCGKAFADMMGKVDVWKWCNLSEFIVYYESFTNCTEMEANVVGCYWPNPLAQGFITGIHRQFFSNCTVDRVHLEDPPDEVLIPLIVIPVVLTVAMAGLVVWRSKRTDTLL
In short: (§1)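 EC50 values come from 4-parameter logistic fits of HTRF cAMP signal, normalised to maximal calcitonin or amylin effect. Peptides were tested in duplicate for 30 min at RT in IBMX-containing (0.5 mM) BSA/HEPES buffer pH 7.4 on stable 1321N1 (human CTR, AMYR3) or HEK (rat CTR, AMYR3) lines.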

[2] = biological target: T2, human calcitonin receptor (hCTR) (Homo sapiens, UniProt P30988); assay: cAMP production in 1321N1 cells with stable recombinant expression of human calcitonin receptor (hCTR); format: cell-based; conditions: cAMP, 1321N1 cells, assay buffer with 0.1% BSA; read-out: EC50 (pM) hCTR
T2 construct: expressed in transfected cells
T2 sequence (P30988 25-474): T1 sequence (P30988 25-474)
In short: as §1

| Ratio (selectivity hAMYR vs hCTR, ratio of EC50 values at the two receptors) [1] | EC50 [1] [pM] | EC50 [2] [pM] | SMILES |
| --- | --- | --- | --- |
| 12 | 89 | 1100 | CC[C@H](C)[C@H](NC(=O)[C@@H]1CCCN1C(=O)CNC(=O)[C@H](Cc1ccccc1)NC(=O)[C@H](CC(N)=O)NC(=O)C(C)(C)NC(=O)[C@H](CO)NC(=O)[C@H](CO)NC(=O)[C@H](Cc1c[nH]cn1)NC(=O)[C@H](CO)NC(=O)[C@H](CC(C)C)NC(=O)[C@H](Cc1ccccc1)NC(=O)[C@H](CC(N)=O)NC(=O)[C@H](C)NC(=O)[C@H](CC(C)C)NC(=O)[C@H](CCCNC(=N)N)NC(=O)[C@H](CCC(N)=O)NC(=O)[C@@H](NC(=O)[C@H](C)NC(=O)[C@@H]1CSSC[C@H](NC(=O)[C@H](CCCCN)NC(=O)[C@@H](N)CCCCNC(=O)CC[C@H](NC(=O)CCCCCCCCCCCCCCCCC(=O)O)C(=O)O)C(=O)N[C@@H](CC(N)=O)C(=O)N[C@@H]([C@@H](C)O)C(=O)N[C@@H](C)C(=O)N[C@@H]([C@@H](C)O)C(=O)N1)[C@@H](C)O)C(=O)N[C@@H](CC(C)C)C(=O)N1CCC[C@H]1C(=O)N1CCC[C@H]1C(=O)N[C@H](C(=O)N[C@@H](CCCNC(=N)N)C(=O)N[C@H](C(=O)NCC(=O)N[C@@H](CO)C(=O)N[C@@H](CC(N)=O)C(=O)N[C@H](C(=O)N[C@@H](Cc1ccc(O)cc1)C(N)=O)[C@@H](C)O)C(C)C)[C@@H](C)O [Peptide 52, K(γE-C18diacid)K[CNTATC]ATQRLANFLSHSS(Aib)NFGPILPPTRVGSNTY-amide] (H-K([γGlu-C18 diacid])KCNTATCATQRLANFLSHSS[Aib]NFGPILPPTRVGSNTY-NH2; disulfide 3-8; N-terminus assumed) |
| 0.2 | 7590 | 1510 | CC[C@H](C)[C@H](NC(=O)[C@@H]1CCCN1C(=O)CNC(=O)[C@H](Cc1ccccc1)NC(=O)[C@H](CC(N)=O)NC(=O)C(C)(C)NC(=O)[C@H](CO)NC(=O)[C@H](CO)NC(=O)[C@H](Cc1c[nH]cn1)NC(=O)[C@H](CO)NC(=O)[C@H](CC(C)C)NC(=O)[C@H](Cc1ccccc1)NC(=O)[C@H](CC(N)=O)NC(=O)[C@H](C)NC(=O)[C@H](CC(C)C)NC(=O)[C@H](CCCNC(=N)N)NC(=O)[C@H](CCC(N)=O)NC(=O)[C@@H](NC(=O)[C@H](C)NC(=O)[C@@H]1CSSC[C@H](NC(=O)[C@H](CCCCN)NC(=O)[C@@H](N)CCCCNC(=O)CC[C@H](NC(=O)CCCCCCCCCCCCCCCCC(=O)O)C(=O)O)C(=O)N[C@@H](CC(N)=O)C(=O)N[C@@H]([C@@H](C)O)C(=O)N[C@@H](C)C(=O)N[C@@H]([C@@H](C)O)C(=O)N1)[C@@H](C)O)C(=O)N[C@@H](CC(C)C)C(=O)N1CCC[C@H]1C(=O)N1CCC[C@H]1C(=O)N[C@H](C(=O)N[C@@H](CC(N)=O)C(=O)N[C@H](C(=O)N1CCC[C@H]1C(=O)N[C@@H](CO)C(=O)N[C@@H](CC(N)=O)C(=O)N[C@H](C(=O)N[C@@H](Cc1ccc(O)cc1)C(N)=O)[C@@H](C)O)C(C)C)[C@@H](C)O [Peptide 54, K(γE-C18diacid)K[CNTATC]ATQRLANFLSHSS(Aib)NFGPILPPTNVPSNTY-amide] (H-K([γGlu-C18 diacid])KCNTATCATQRLANFLSHSS[Aib]NFGPILPPTNVPSNTY-NH2; disulfide 3-8; N-terminus assumed) |
| 1.9 | 802 | 1510 | CC[C@H](C)[C@H](NC(=O)[C@@H]1CCCN1C(=O)CNC(=O)[C@H](Cc1ccccc1)NC(=O)[C@H](Cc1c[nH]cn1)NC(=O)[C@H](CC(N)=O)NC(=O)[C@H](CO)NC(=O)[C@H](CO)NC(=O)[C@H](Cc1c[nH]cn1)NC(=O)C(C)(C)NC(=O)[C@H](CC(C)C)NC(=O)[C@H](Cc1ccccc1)NC(=O)[C@H](CC(N)=O)NC(=O)[C@H](C)NC(=O)[C@H](CC(C)C)NC(=O)[C@H](CCCNC(=N)N)NC(=O)[C@H](CCC(N)=O)NC(=O)[C@@H](NC(=O)[C@H](C)NC(=O)[C@@H]1CSSC[C@H](NC(=O)[C@H](CCCCN)NC(=O)[C@@H](N)CCCCNC(=O)CC[C@H](NC(=O)CCCCCCCCCCCCCCCCC(=O)O)C(=O)O)C(=O)N[C@@H](CC(N)=O)C(=O)N[C@@H]([C@@H](C)O)C(=O)N[C@@H](C)C(=O)N[C@@H]([C@@H](C)O)C(=O)N1)[C@@H](C)O)C(=O)N[C@@H](CC(C)C)C(=O)N1CCC[C@H]1C(=O)N1CCC[C@H]1C(=O)N[C@H](C(=O)N[C@@H](CC(N)=O)C(=O)N[C@H](C(=O)NCC(=O)N[C@@H](CO)C(=O)N[C@@H](CCC(=O)O)C(=O)N[C@H](C(=O)N[C@@H](Cc1ccc(O)cc1)C(N)=O)[C@@H](C)O)C(C)C)[C@@H](C)O [Peptide 147] (H-K([γGlu-C18 diacid])KCNTATCATQRLANFL[Aib]HSSNHFGPILPPTNVGSETY-NH2; disulfide 3-8; N-terminus assumed) |
| 5 | 157 | 809 | CC[C@H](C)[C@H](NC(=O)[C@@H]1CCCN1C(=O)CNC(=O)[C@H](Cc1ccccc1)NC(=O)[C@H](CC(N)=O)NC(=O)C(C)(C)NC(=O)[C@H](CO)NC(=O)[C@H](CO)NC(=O)[C@H](Cc1c[nH]cn1)NC(=O)[C@@H](NC(=O)[C@H](CC(C)C)NC(=O)[C@H](Cc1ccccc1)NC(=O)[C@H](CC(N)=O)NC(=O)[C@H](C)NC(=O)[C@H](CC(C)C)NC(=O)[C@H](CCCNC(=N)N)NC(=O)[C@H](CCC(N)=O)NC(=O)[C@@H](NC(=O)[C@H](C)NC(=O)[C@@H]1CSSC[C@H](NC(=O)[C@@H](N)CCCCNC(=O)CC[C@H](NC(=O)CCCCCCCCCCCCCCCCC(=O)O)C(=O)O)C(=O)N[C@@H](CC(N)=O)C(=O)N[C@@H]([C@@H](C)O)C(=O)N[C@@H](C)C(=O)N[C@@H]([C@@H](C)O)C(=O)N1)[C@@H](C)O)C(C)C)C(=O)N[C@H](CC(C)C)C(=O)N1CCC[C@H]1C(=O)N1CCC[C@H]1C(=O)N[C@H](C(=O)N[C@@H](CC(N)=O)C(=O)N[C@H](C(=O)NCC(=O)N[C@@H](CO)C(=O)N[C@@H](CC(N)=O)C(=O)N[C@H](C(=O)N[C@@H](Cc1ccc(O)cc1)C(N)=O)[C@@H](C)O)C(C)C)[C@@H](C)O [Peptide 59, K(γE-C18diacid)[CNTATC]ATQRLANFLVHSS(Aib)NFGPI(dL)PPTNVGSNTY-amide] (H-K([γGlu-C18 diacid])CNTATCATQRLANFLVHSS[Aib]NFGPI[dL]PPTNVGSNTY-NH2; disulfide 2-7; N-terminus assumed) |
